In paper PMC8338929, “Acetylation turns leucine into a drug by membrane transporter switching” (Scientific Reports, 2021) one finds Ki and IC50 data, which are given here for 1 molecule.

For the assay, the target named is T1, human MCT1 (SLC16A1) (Homo sapiens, UniProt P53985).
T1 construct: host or cells: MDCK-II
T1 sequence (P53985 1-500): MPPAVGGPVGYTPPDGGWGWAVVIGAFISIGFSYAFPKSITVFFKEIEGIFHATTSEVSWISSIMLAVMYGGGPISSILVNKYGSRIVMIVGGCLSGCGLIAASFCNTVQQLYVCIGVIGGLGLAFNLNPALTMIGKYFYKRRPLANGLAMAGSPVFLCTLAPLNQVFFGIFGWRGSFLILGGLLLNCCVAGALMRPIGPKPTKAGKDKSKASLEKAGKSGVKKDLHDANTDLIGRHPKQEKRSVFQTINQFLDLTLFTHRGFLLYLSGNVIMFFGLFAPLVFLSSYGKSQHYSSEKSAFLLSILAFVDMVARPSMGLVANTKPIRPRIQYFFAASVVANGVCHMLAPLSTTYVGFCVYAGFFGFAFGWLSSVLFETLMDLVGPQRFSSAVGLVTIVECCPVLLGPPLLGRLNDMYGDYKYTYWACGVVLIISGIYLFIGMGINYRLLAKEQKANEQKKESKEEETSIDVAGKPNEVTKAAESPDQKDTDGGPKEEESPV
Kind of assay: Inhibition of MCT1 uptake of probe substrate 2-thiophene glyoxylate in MDCK-II cells. The format is cell-based. The method, then:
Transport studies with human PepT1 (SLC15A1), LAT1 (SLC7A5) and MCT1 (SLC16A1) were conducted in MDCK-II cells expressing the human transporter or control cells expressing a vector with Green Fluorescence Protein. Cells were transfected using a proprietary, transient transfection system (OPTI-EXPRESSION Technology, BioIVT). The results from the control cells were used to correct for substrate permeation by routes other than the transporter being investigated in the study. […] Specifically, Net Transporter Mediated Substrate Uptake (pmol/min/cm^2) = (Cellular accumulation in the presence of the transporter) − (Mean cellular accumulation in the absence of the transporter). MDCK-II cells were maintained in DMEM with low glucose and 10% FBS. Cells were used at passages up to 40 were seeded at 60,000 ± 10,000 cells/well on 96-well plates approximately 24 h before transfection, and transport assays were performed approximately 48 h after transfection. Transport studies in MDCK-II cells were conducted in 96-well insert plates with permeable membrane (0.4 µm) and receiver tray (Millipore MultiScreen Filter 96-well).
Transport studies with PepT1 were conducted in 96-well cell culture plate with wells containing a monolayer of MDCK-II cells grown on a permeable support and a corresponding 96-well receiver tray. Cell plates are maintained at 37 °C in 5% CO2 atmosphere prior to initiation of the transport experiment. Pre-incubation was conducted in HBSS, pH 7.4. The transport experiments were conducted in HBSS with Bis–Tris, pH 5.5, without phenol red. Both pre-incubation and incubation were conducted at 37 °C. All final assay solutions of probe substrate, reference inhibitor or test article contain 0.5% (v/v) DMSO (vehicle control). The culture plate insert […] was washed with warm HBSS three times and then blotted dry. The culture plate wells […] were washed with warm HBSS three times. 100 µL of 37 °C HBSS pH 7.4 pre-incubation buffer to the apical compartment as follows: for the probe substrate transport assay, the HBSS contains vehicle; for the reference inhibition assay, the HBSS contains the reference inhibitor at the required concentration; for the test article assays, the HBSS in each well contains test compound at the specified concentration. The plates were incubated at 37 °C with orbital shaking at approximately 60 rpm for the pre-incubation (30 min), aspirated and then 100 µL of the experimental buffer was added. […] Then a 30-µL sample was taken and mixed with 200 µL of scintillation fluid and scintillation counted (1450 Microbeta, Perkin-Elmer). […]

Turning to `CC(=O)N[C@@H](CC(C)C)C(=O)O` [N-acetyl-L-leucine], the inhibition constant (Ki) (Cheng-Prusoff equation from IC50, competitive inhibition assumed, read-out: affinity (Ki) MCT1) amounted to 4.3 mM. The molecule further showed a half-inhibitory concentration (IC50) (probe 2-thiophene glyoxylate 500 µM, positive control phloretin 500 µM) of 15 mM.
